Here are results for two compounds from patent publication US10196411B2, “Tizoxanide phosphate and alkane sulfonate and pharmaceutical applications thereof” (priority 2014, dated 2019).

For series [1] the following is noted: in words.
A further series concerns Helicobacter pylori. The settings on record: 103 strains of Helicobacter pylori; cited from earlier work.
For series [2] the following is noted: in vivo, cited from earlier work.
Series [3] in a line: Pharmacokinetic evaluation of oral administration and intravenous injection in rats. It is filed as in vivo, SD rats. The conditions noted are these: male, SD, rat, in vivo, po, 12.5 mg/kg. How it is done: 9 SD rats (SPF grade, male, 200±10 g), provided by Laboratory Animal Center of the Academy of Military Medical Sciences, were grouped randomly, 3 […] for each group.
[…]; The plasma was separated and stored in a −20° C. refrigerator for further detection.
(2) Oral administration group of Compound 3, a dose of 15 mg/kg (equivalent to a dose of 41 μmol/kg tizoxanide); […]; The plasma was separated and stored in a −20° C. refrigerator for further detection.
(3) Oral administration group of nitazoxanide: a dose of 12.5 mg/kg (equivalent to a dose of 41 μmol/kg tizoxanide); administration volume: 2 mL/200 g rat (preparation of a test solution: 10.96 mg nitazoxanide was weighed accurately and dissolved by adding 600 μL DMSO, and […] sterile water was added to prepare a clear solution at 1.25 mg/mL); after oral administration of nitazoxanide at 12.5 mg/kg in rats, blood was taken before administration and at 0.08, 0.25, 0.5, 1, 2, 4, 6, 8, 12 and 24 h after administration. The plasma was separated and stored in a −20° C. refrigerator for further detection.
Treatment of plasma sample: 100 μL plasma was taken, 300 μL acetonitrile solution containing internal standard (500 nmol/L a solution of tolbutamide in acetonitrile) was added, and then mixed well. The mixture was vortexed for 1 min, and centrifuged at 4° C. for 10 min (at a relative centrifugal force (RCF) of 14000 g). The supernatant was taken, and 20 μL was drawn for LC/MS/MS analysis, so as to detect the blood concentration of tizoxanide and the prototype drug.

In the next series the test system is PR8 influenza virus. The conditions noted are these: PR8 influenza virus in MDCK cells; cited from earlier work.
Series [4] concerns Mycobacterium tuberculosis. The conditions noted are these: cited from earlier work.

≈ marks a conversion by molar mass, not a printed value. Counter-ions that a name gives are not always drawn.

In the case of `O=C(Nc1ncc([N+](=O)[O-])s1)c1ccccc1OP(=O)(O)O` [Compound 5, 2-(5-nitrothiazol-2-yl-carbamoyl)phenyl phosphate calcium salt], the “solubility compared to nitazoxanide” value in series [1] is “much better”.
With `CC(=O)Oc1ccccc1C(=O)Nc1ncc([N+](=O)[O-])s1` [nitazoxanide, 2-acetoxy-N-(5-nitro-2-thiazolyl)benzamide], in the series on Helicobacter pylori, the “50% minimal inhibitory concentration (MIC50)” value was 1 µg/mL and the “90% minimal inhibitory concentration (MIC90)” value is 4 µg/mL. In addition, the “detection of nitazoxanide in plasma, urine, bile and feces” value in series [2] (po) is on record as “not detectable”. Besides, in series [2], the “fraction of the oral dose excreted by feces” value is recorded as “about ⅔” and the “fraction of the oral dose excreted by urine” value is listed as “about ⅓”. This compound also came in with a Vz/F in series [3] of 32.67 ± 16.81 L/kg. Also, in the series with PR8 influenza virus, the EC50 (usually the concentration that produces a half-maximal response) was 1 µg/mL (≈ 3.25 µM) and the EC90 (in general, the concentration needed for an effect of 90%) is 7 µg/mL (≈ 22.8 µM). Besides, the “minimal inhibitory concentration (MIC), median value” in series [4] is 16 µg/mL (≈ 52.1 µM).
